In patent publication US5708032A, “Fluoroalkenyl compounds and their use as pest control agents” (Monsanto Company, priority 1995, dated 1998):
Values joined by “and” are separate entries in the source; they are usually repeats but may differ in a detail not shown here. Equal values may be shown once. Where a name gives a salt, the structure may show the parent alone. Read-outs that look alike come from different tables or passages of the source.

Test system: root knot nematodes (Meloidogyne incognita)
Experiment: systemic control of root knot nematodes on tomato roots by foliar application
Assay type: in vivo
Settings: for pest or weed control at 100 ppm / pest or weed control at 500 ppm: Meloidogyne incognita, 504 h, read-out: percent control of root disease relative to non-treated plants
Procedure: Compounds of the present invention, prepared as described above, were tested for effectiveness in controlling root knot nematodes (Meloidogyne incognita) on tomato roots when applied to foliage of young plants.
Tomato plants, cv `Rutgers`, were grown one per pot in six an square plastic pots containing a mixture of equal parts fine sand, coarse sand, silt loam soil, and commercial potting medium. A 10,000 ppm stock solution of each test compound was prepared in either water or acetone. Samples were then diluted with additional water to give final test concentrations of 500 and 100 ppm. Tween®20 was added for a final concentration of 0.5% v/v in all test samples.
When the tomato plants were 18-21 days old the test solutions were sprayed onto the leaves and stems. Each rate of each test compound was applied to three tomato plants using four ml of spray solution per plant. One day after spraying the plants were inoculated with mature root knot nematode eggs containing J1 larvae, with 8,000 eggs per plant applied in 5 ml of water on soil at the stem base. Plants then were incubated in a growth chamber at 27° C. with all replicate pots randomized throughout the chamber. During the two weeks immediately following application of the test compounds all plants received sub-irrigation and the foliage was kept dry.
After three weeks incubation the plant roots were washed and nematode disease severity was assessed. Each root system was rated individually and a visual estimate of the percent of the root system afflicted with nematode galling was determined. Values of 0, 1, 5, 10, 20, 30, 40, 50, 60, 70, 80, or 100 percent galled roots were assigned to each plant. […] For each treatment (compound & rate) a standard deviation was calculated for the mean of the three replicate plants. Percent disease control relative to non-treated plants also was calculated.

[1] = 100 ppm foliar spray, tomato cv Rutgers, 3 weeks, mean of three plants, non-treated generally 60% or greater
[2] = 500 ppm foliar spray, tomato cv Rutgers, 3 weeks, mean of three plants, non-treated generally 60% or greater
[3] = 100 ppm foliar spray, tomato cv Rutgers, 3 weeks, * = no biological activity at the rate tested
[4] = 500 ppm foliar spray, tomato cv Rutgers, 3 weeks, * = no biological activity at the rate tested

Compound | Mean percent root disease (galled) [1] [%] | Mean percent root disease (galled) [2] [%] | pest or weed control at 100 ppm [3] [%] | pest or weed control at 500 ppm [4] [%] | pest or weed control at 100 ppm (foliar) [%] | pest or weed control at 500 ppm (foliar) [%] | Mean percent root disease (galled) (in vivo)
O=C(CC(F)=C(F)F)Sc1ncccn1 [Example 16, 3,-BUTENETHIOIC ACID, 3,4,4-TRIFLUORO-, S-2-PYRIMIDINYL ESTER] | 80 | 50 | 0 | 38 |  |  | 
Cc1ccccc1C(=O)CC(F)=C(F)F [Example 20, 3-BUTEN-1-ONE, 3,4,4-TRIFLUORO-1-(2-METHYL PHENYL)-] | 53 | 47 | 0 | 12 |  |  | 
O=C(CC(F)=C(F)F)NS(=O)(=O)C(F)(F)F [Example 9, 3-BUTENAMIDE, 3,4,4-TRIFLUORO-, N-[(TRIFLUOROMETHYL)SULFONYL]-] | 80 | 5 | 0 | 94 |  |  | 
O=P(O)(O)CC(F)=C(F)F [Example 18, PHOSPHONIC ACID, (2,3,3-TRIFLUORO-2-PROPENYL)-] |  |  |  |  | -5 | 0 | 73% and 77%
O=C(CC(F)=C(F)F)Nc1ccc(S(=O)(=O)O)cc1 [Example 7, BENZENESULFONIC ACID, 4-[(3,4,4-TRIFLUORO-1-OXO-3- BUTENYL)AMINO]-] | 23 | 17 | 56 | 69 |  |  | 
C[Si](C)(C)CN(Cc1ccccc1)C(=O)CC(F)=C(F)F [Example 6, 3-BUTENAMIDE, 3,4,4-TRIFLUORO-N-(PHENYLMETHYL)- N-[(TRIMETHYLSILYL) METHYL]-] |  |  |  |  | 2 | 0 | 87% and 85%
O=C(CC(F)=C(F)F)n1cccn1 [Example 12, 1H-PYRAZOLE, 1-(3,4,4-TRIFLUORO-1-OXO-3- BUTENYL)-] | 80 | 43 | 0 | 46 |  |  | 
CS(=O)(=O)NC(=O)CC(F)=C(F)F [Example 8, 3-BUTENAMIDE, 3,4,4-TRIFLUORO-N- (METHYLSULFONYL)-] | 80 | 5 | 0 | 94 |  |  | 
O=C(CC(F)=C(F)F)NCS(=O)(=O)O [Example 10, METHANESULFONIC ACID, [(3,4,4-TRIFLUORO-1-OXO-3- BUTENYL)AMINO]-] | 20 | 27 | 62 | 50 |  |  | 
O=C(CC(F)=C(F)F)n1cncn1 [Example 11, 1H-1,2,4-TRIAZOLE, 1-(3,4,4-TRIFLUORO-1-OXO-3- BUTENYL)-] | 80 | 7 | 0 | 92 |  |  | 
NC(=O)NNC(=O)CC(F)=C(F)F [Example 4, 3-BUTENOIC ACID, 3,4,4-TRIFLUORO-, 2-(AMINOCARBONYL)HYDRAZIDE] | 80 | 73 | 0 | 8 |  |  | 
FC(F)=C(F)CC(=S)Nc1ccccc1 [Example 13, 3-BUTENETHIOAMIDE, 3,4,4-TRIFLUORO-N-PHENYL-] | 40 | 27 | 25 | 50 |  |  | 
CONC(=O)CC(F)=C(F)F [Example 3, 3-BUTENAMIDE, 3,4,4-TRIFLUORO-N-METHOXY-] | 77 | 70 | 12 | 20 |  |  | 
COc1cc(OC)nc(NC(=O)CC(F)=C(F)F)n1 [Example 5, 3-BUTENAMIDE, N-(4,6-DIMETHOXY-2-PYRIMIDINYL)- 3,4,4-TRIFLUORO-] | 90 | 30 | -3 | 66 |  |  | 
C[Si](C)(C)CCSC(=O)CC(F)=C(F)F [Example 15, 3-BU[…], 3,4,4-TRIFLUORO-, S-[2-(TRIMETHYLSILYL)ETHYL] ESTER] |  |  |  |  | 2 | -3 | 90% and 85%
N#CCNC(=O)CC(F)=C(F)F [Example 2, 3-BUTENAMIDE, N-CYANOMETHYL)-3,4,4- TRIFLUORO-] | 73 | 67 | 8 | 17 |  |  | 
C[Si](C)(C)CCCOC(=O)CC(F)=C(F)F [Example 14, 3-BUTENOIC ACID, 3,4,4-TRIFLUORO-, 3-(TRIMETHYLSILYL)PROPYL ESTER] |  |  |  |  | 4 | 8 | 80% and 83%
O=P(O)(CC(F)=C(F)F)c1ccccc1 [Example 19, PHOSPHINIC ACID, PHENYL(2,3,3-TRIFLUORO-2- PROPENYL)-, SODIUM SALT] | 73 | 73 | 0 | 0 |  |  | 
